In PubChem BioAssay (NCI):
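Tested at 5 concentrations; 48 h exposure; 96-well plates; endpoints linearly interpolated, else capped at highest concentration. TGI denotes the concentration required for complete inhibition of growth.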

Experiments:
Assay in all cases: NCI tumour cell line growth inhibition, 48 h
UACC-62 melanoma = system: UACC-62 melanoma
MOLT-4 leukemia = system: MOLT-4 leukemia
MDA-MB-435 = system: MDA-MB-435
SK-MEL-28 melanoma = system: SK-MEL-28 melanoma
OVCAR-5 ovarian = system: OVCAR-5 ovarian
IGROV1 ovarian = system: IGROV1 ovarian
CAKI-1 renal = system: CAKI-1 renal
SN12C renal = system: SN12C renal
NCI-H460 lung = system: NCI-H460 lung
U251 CNS = system: U251 CNS
BT-549 breast = system: BT-549 breast
K-562 leukemia = system: K-562 leukemia
NCI-H226 lung = system: NCI-H226 lung
MALME-3M melanoma = system: MALME-3M melanoma
M14 melanoma = system: M14 melanoma
RPMI-8226 leukemia = system: RPMI-8226 leukemia
COLO 205 colon = system: COLO 205 colon
SNB-19 CNS = system: SNB-19 CNS
ACHN renal = system: ACHN renal
SNB-75 CNS = system: SNB-75 CNS

SMILES	TGI (UACC-62 melanoma)	TGI (MOLT-4 leukemia)	TGI (MDA-MB-435)	TGI (SK-MEL-28 melanoma)	TGI (OVCAR-5 ovarian)	TGI (IGROV1 ovarian)	TGI (CAKI-1 renal)	TGI (SN12C renal)	TGI (NCI-H460 lung)	TGI (U251 CNS)	TGI (BT-549 breast)	TGI (K-562 leukemia)	TGI (NCI-H226 lung)	TGI (MALME-3M melanoma)	TGI (M14 melanoma)	TGI (RPMI-8226 leukemia)	TGI (COLO 205 colon)	TGI (SNB-19 CNS)	TGI (ACHN renal)	TGI (SNB-75 CNS)
N#Cc1cc2c(n(C3OC(CO)C(O)C(O)C3O)c1=S)CCCCC2 (stereo not given)	> 100 µM	> 100 µM	> 100 µM	> 100 µM	> 100 µM	> 100 µM	> 100 µM	> 100 µM	> 100 µM	> 100 µM	> 100 µM	> 100 µM	> 100 µM	> 100 µM	> 100 µM	> 100 µM	> 100 µM	> 100 µM	> 100 µM	> 100 µM
C/C=C1/CN2CCC34C5=CC(=O)C(c6cc7c(cc6OC)N(C)C6=C(C(=O)OC)CC8(CC)CCCN9CCC67C98)=CC5=NC23CCC1C4C(=O)OC (stereo not given)	31.1 µM	6.94 µM	26 µM	31 µM	16.8 µM	31.9 µM	21.9 µM	27.7 µM	30.1 µM	28.6 µM	29.7 µM	15.9 µM	39 µM	28.6 µM	24.8 µM	16.6 µM	22.9 µM	30.3 µM	29.1 µM	21.6 µM
C#CCn1c(=O)c(C)cn(/C(=C/C(=O)OCC)C(=O)OCC)c1=O	24.8 µM	30.6 µM	20.5 µM	19.7 µM	16 µM	13 µM	3.18 µM	26.2 µM	7.83 µM	25.2 µM	20.4 µM	> 69.4 µM	4.9 µM	4.07 µM	14 µM	> 27.7 µM	> 22.7 µM	28.6 µM	3.64 µM	28.8 µM
CC1=C(C(=O)OCCc2ccc([N+](=O)[O-])cc2)C(c2ccccc2C(F)(F)F)C(C(=O)OC(C)C)=C(C)N1 (stereo not given)	36.5 µM	7.95 µM	> 100 µM	> 100 µM	> 100 µM	> 100 µM	> 100 µM	26.7 µM	> 100 µM	> 100 µM	> 100 µM	> 100 µM	21.5 µM	28.5 µM	16.2 µM	> 100 µM	16.3 µM	> 100 µM	> 100 µM	> 100 µM
Cc1cc2c(cc1Cl)SC(NN(C)C)=NS2(=O)=O	> 10 µM	> 10 µM	> 10 µM	> 10 µM	> 10 µM	> 10 µM	> 10 µM	> 10 µM	> 10 µM	> 10 µM	> 10 µM	> 10 µM	> 10 µM	> 10 µM	> 10 µM	> 10 µM	> 10 µM	> 10 µM	> 10 µM	> 10 µM
CCN(CC)CC(O)CNc1ccc(NCC(O)CCl)c2c1C(=O)c1ccccc1C2=O (stereo not given)	29.2 µM	8.82 µM	18.6 µM	25.4 µM	29.2 µM	25.5 µM	21.9 µM	19.7 µM	12.5 µM	28 µM	23.5 µM	6.45 µM	25 µM	28.3 µM	9.38 µM	26.6 µM	21.6 µM	25.9 µM	16.3 µM	24.9 µM
Cc1nc2ccc(N=Nc3c(O)ccc4ccccc34)cc2[nH]1	> 63.4 µM	66.2 µM	45.9 µM	> 100 µM	> 100 µM	> 67 µM	49.8 µM	> 74.9 µM	> 87.7 µM	> 67.9 µM	59.7 µM	> 100 µM	> 100 µM	> 66.5 µM	> 81.5 µM	> 82.8 µM	> 66.6 µM	> 100 µM	> 57.2 µM	> 100 µM
C[C@]1(O)CC(=O)c2c(c(-c3ccc4cc5c(c(O)c4c3O)C(=O)C[C@@](C)(O)C5)c3cccc(O)c3c2O)C1	27 µM	> 100 µM	41 µM	23.2 µM	25.3 µM	22.8 µM	18.2 µM	15.8 µM	11.3 µM	12.3 µM	18.6 µM	> 100 µM	21.9 µM	27.1 µM	29.8 µM	47.8 µM	3.3 µM	23.2 µM	18 µM	19.3 µM
CCOC(=O)c1c(NS(=O)(=O)c2ccc(Br)cc2)sc2c1CCCC2	17.7 µM	12.3 µM	49.1 µM	32.6 µM	18.3 µM	8.79 µM	33.7 µM	12.1 µM	13.9 µM	25.4 µM	19.4 µM	> 100 µM	9.91 µM	27.9 µM	9.92 µM	30.5 µM	32.1 µM	20.6 µM	14.6 µM	12.4 µM
CC(C)(C)C1CCC2c3c([nH]c4ccccc34)C3C(=O)N(c4cccc(Cl)c4)C(=O)C3C2C1 (stereo not given)	33.4 µM	13 µM	48.9 µM	32 µM	30.3 µM	45.7 µM	53.2 µM	15.6 µM	17.7 µM	38.4 µM	41.1 µM	> 49.6 µM	39.9 µM	32.4 µM	28.3 µM	> 72.2 µM	35.8 µM	> 100 µM	44.2 µM	50.1 µM
COc1ccc(-c2cn3c(nc4ccccc43)c(C)n2)cc1	> 91.5 µM	> 100 µM	> 100 µM	> 100 µM	> 100 µM	> 100 µM	> 100 µM	> 100 µM	> 100 µM	> 100 µM	> 100 µM	> 100 µM	> 100 µM	> 100 µM	> 100 µM	> 100 µM	> 100 µM	> 100 µM	> 100 µM	> 86.1 µM
C/C=C/C=C/C1=NN(c2cccc(S(=O)(=O)O)c2)C2(C1)C(Cl)C(=O)N2c1nc2ccccc2s1 (stereo not given)	26.2 µM	> 68.5 µM	26.6 µM	43.6 µM	34.8 µM	25.4 µM	20.9 µM	32.1 µM	31.6 µM	23.8 µM	34 µM	> 62.1 µM	32 µM	32.7 µM	29.4 µM	> 51.6 µM	35.3 µM	29.9 µM	28.8 µM	25.9 µM
COC(=O)C1=C(O)C(C(=O)OC)[C@]2(O)[C@H](C(=O)OC)[C@H]1C[C@@H](c1ccccc1OC)[C@H]2C(=O)OC (stereo not given in full)	18.3 µM	25.5 µM	9.79 µM	27.1 µM	16.4 µM	11.3 µM	17.5 µM	17.4 µM	> 41.8 µM	19.3 µM	11.2 µM	> 38.9 µM	20.7 µM	13.5 µM	10.2 µM	8.82 µM	13.3 µM	19.7 µM	21.3 µM	> 71.3 µM
O=C(O)C(F)(OC(F)(F)C(F)(F)C(F)(F)F)C(F)(F)F (stereo not given)	> 100 µM	> 100 µM	> 100 µM	> 100 µM	> 100 µM	> 100 µM	> 100 µM	> 100 µM	> 100 µM	> 100 µM	> 100 µM	> 100 µM	> 100 µM	> 100 µM	> 100 µM	> 100 µM	> 100 µM	> 100 µM	> 100 µM	> 100 µM
COC(=O)/C=C1/OC(c2ccc(Br)cc2)=C(Br)C1=O	20.5 µM	6.87 µM	20.9 µM	27.2 µM	12.5 µM	17 µM	6.32 µM	17.6 µM	36.6 µM	6.88 µM	11.7 µM	6.58 µM	34.7 µM	21.5 µM	10.8 µM	6.06 µM	4.12 µM	28.9 µM	16.8 µM	17.5 µM
Cc1cc2c(cc1C)C(=O)c1ncccc1C2=O	> 100 µM	74.2 µM	34.4 µM	> 100 µM	> 100 µM	> 100 µM	> 100 µM	> 100 µM	> 100 µM	> 100 µM	> 100 µM	> 100 µM	> 100 µM	52.9 µM	> 100 µM	> 100 µM	82.4 µM	> 100 µM	> 100 µM	> 100 µM
C[C@@]12C[C@@H](c3ccccc3O1)N1CCSC1=N2	> 100 µM	> 100 µM	> 100 µM	> 100 µM	> 100 µM	> 100 µM	> 100 µM	> 100 µM	> 100 µM	> 100 µM	> 100 µM	> 100 µM	> 100 µM	> 100 µM	> 100 µM	> 100 µM	> 100 µM	> 100 µM	> 100 µM	> 100 µM
